Assay results published in article PMC10383271.

Tests used:
COX-2 = molecular target: T1, COX-2 (Homo sapiens, UniProt P35354); assay: COX-2 inhibition, Cayman's COX Colorimetric Inhibitor Screening Assay Kit; details: for Selectivity Index (SI): COX-2 IC50/COX-1 IC50
T1 sequence (P35354 18-604): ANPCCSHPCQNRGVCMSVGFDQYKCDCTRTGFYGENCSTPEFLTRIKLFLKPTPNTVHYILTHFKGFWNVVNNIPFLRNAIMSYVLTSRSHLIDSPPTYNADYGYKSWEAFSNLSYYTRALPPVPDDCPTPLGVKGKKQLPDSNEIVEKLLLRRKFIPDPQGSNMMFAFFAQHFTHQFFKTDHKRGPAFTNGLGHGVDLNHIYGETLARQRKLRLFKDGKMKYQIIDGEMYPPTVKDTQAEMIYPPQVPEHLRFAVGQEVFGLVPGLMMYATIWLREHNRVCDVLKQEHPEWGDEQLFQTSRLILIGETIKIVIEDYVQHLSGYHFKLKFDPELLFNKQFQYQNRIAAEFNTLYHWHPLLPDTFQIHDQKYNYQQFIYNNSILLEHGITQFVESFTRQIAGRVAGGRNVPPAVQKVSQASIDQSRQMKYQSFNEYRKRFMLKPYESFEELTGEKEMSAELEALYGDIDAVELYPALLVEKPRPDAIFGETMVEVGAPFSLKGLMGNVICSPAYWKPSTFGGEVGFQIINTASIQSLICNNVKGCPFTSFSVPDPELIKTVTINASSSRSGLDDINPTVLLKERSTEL

COX-1 = molecular target: T2, COX-1 (Ovis aries, UniProt P05979); assay: COX-1 inhibition, Cayman's COX Colorimetric Inhibitor Screening Assay Kit
T2 sequence (P05979 25-600): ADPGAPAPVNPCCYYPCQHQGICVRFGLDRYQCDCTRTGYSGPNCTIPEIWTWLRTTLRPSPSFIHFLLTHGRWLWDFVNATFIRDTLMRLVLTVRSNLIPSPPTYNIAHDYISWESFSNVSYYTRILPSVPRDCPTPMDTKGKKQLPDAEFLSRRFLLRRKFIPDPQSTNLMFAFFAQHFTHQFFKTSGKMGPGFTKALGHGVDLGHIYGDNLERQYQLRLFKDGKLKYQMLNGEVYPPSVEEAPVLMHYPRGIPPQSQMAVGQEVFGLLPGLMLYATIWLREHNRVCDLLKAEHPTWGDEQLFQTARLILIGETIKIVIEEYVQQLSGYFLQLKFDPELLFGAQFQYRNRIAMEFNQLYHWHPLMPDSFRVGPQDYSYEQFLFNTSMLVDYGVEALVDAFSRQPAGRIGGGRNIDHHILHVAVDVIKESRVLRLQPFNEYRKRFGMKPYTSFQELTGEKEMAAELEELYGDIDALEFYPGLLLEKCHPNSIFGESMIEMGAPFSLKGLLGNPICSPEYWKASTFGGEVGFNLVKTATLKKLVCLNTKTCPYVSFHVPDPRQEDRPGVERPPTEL

[1] = system: normal human dermal fibroblasts (NHDF); assay: MTT assay, viability of NHDF cell culture (ISO 10993 part 5); format: cell-based; details: NHDF cell cultures, 24 h incubation; for IC50: Homo sapiens, MTT, mean (± SD), n = 5
Experimental: The viability of the normal human dermal fibroblasts (NHDF) cell culture after 24 h incubation with the tested compounds 5a-c-7a-c was assessed by carrying out the MTT assay. This test was performed according to ISO 10993 part 5, Appendix C. For all tested compounds, the IC50 values were calculated using four-parameter logistics. Normal human dermal fibroblasts (NHDF) were purchased from the American Type Culture Collection (ATCC) for cytotoxicity evaluation of the tested compounds. The cells were grown in Dulbecco's Modified Eagle Medium DMEM with […] glucose without phenol red supplemented with 10% FBS and 2 mM L-glutamine, and 25 μg/mL gentamicin. The NHDF cells were cultured under standard conditions (5% CO2, 37 °C, and 95% humidity) with evaluation morphology and confluence at least twice a week. For the assay, the cells were used only in a logarithmic growth phase, and the TrypLE solution was used for 2 min at 37 °C to detach cells. Then, the TrypLE solution was inactivated by adding a culture medium, and the suspension of cells was collected into a tube and centrifuged for 5 min at 1000 rpm. Then, the supernatant was removed, fresh medium was added, and the pellet was resuspended and calculated using the […] chamber. The suspension of cells was prepared to allow seeding 10,000 cells/well density and incubated for 24 h to regenerate in CO2-incubator. The tested compounds were dissolved in DMSO to a final concentration of 10 mM and stored at -20 °C. Before use, the compound solution was kept at room temperature until thawing, and then, samples with 3 different concentrations of compounds were prepared (100 μM, 50 μM, and 10 μM) for each compound. The tested concentrations of compounds were prepared in a culture medium. […] The evaluation of the cytotoxicity of the newly synthesized compounds was carried out in accordance with the ISO 10,993 part V standard by performing the MTT test. After seeding at a density of 10,000 cells per well and adhering overnight, the NHDF cells were treated with the test compounds for 24 h in a CO2 incubator. The supernatant was then removed, the cells were washed with PBS, a 1mg/mL solution of MTT dissolved in MEM was added, and the cultures were re-incubated for 2 h in a CO2 incubator. The medium was then removed, and for a further 30 min, the formazan crystals were dissolved in 100 μL of isopropanol. The absorbance was measured with a Varioskan Go microplate reader at a wavelength of 570 nm. […] For enzyme assays, the IC50 was calculated according to the procedure provided by the kit manufacturer. The significance was set at p < 0.05. Based on the tests performed, the test power was calculated to be greater than 80%.

15-LOX = molecular target: T3, 15-LOX (Glycine max, UniProt P08170); assay: 15-LOX inhibition, Cayman's Lipoxygenase Inhibitor Screening Assay Kit
T3 sequence (P08170 1-839): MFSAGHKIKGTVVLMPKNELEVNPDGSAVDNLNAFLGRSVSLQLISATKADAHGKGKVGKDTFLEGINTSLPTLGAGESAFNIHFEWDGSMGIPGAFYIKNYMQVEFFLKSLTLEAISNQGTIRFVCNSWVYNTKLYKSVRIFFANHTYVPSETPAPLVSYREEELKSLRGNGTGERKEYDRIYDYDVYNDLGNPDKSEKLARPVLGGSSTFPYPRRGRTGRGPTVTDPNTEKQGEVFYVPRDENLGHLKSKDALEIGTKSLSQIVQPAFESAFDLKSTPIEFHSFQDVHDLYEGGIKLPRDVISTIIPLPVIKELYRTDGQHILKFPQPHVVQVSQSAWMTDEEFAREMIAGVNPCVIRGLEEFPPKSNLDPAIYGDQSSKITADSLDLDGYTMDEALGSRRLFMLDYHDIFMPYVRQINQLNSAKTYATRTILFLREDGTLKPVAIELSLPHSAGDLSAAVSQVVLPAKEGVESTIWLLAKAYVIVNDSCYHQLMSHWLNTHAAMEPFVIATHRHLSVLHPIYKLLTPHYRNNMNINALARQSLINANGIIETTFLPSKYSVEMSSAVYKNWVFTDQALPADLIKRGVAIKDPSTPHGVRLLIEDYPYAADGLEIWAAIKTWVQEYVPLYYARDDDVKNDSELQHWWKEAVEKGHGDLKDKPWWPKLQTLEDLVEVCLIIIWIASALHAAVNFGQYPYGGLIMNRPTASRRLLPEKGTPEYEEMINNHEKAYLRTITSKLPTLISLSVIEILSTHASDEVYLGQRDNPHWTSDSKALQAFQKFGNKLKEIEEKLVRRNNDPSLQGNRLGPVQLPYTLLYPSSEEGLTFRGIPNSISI

SMILES	IC50 (COX-2) [µM]	effect on COX-1 isoform (in words) (COX-1; enzymatic assay)	melting point [°C]	IC50 [1] [µM]	Cell Morphology in Culture [1]	IC50 (15-LOX) [µM]	Selectivity Index (SI) (COX-2)	IC50 (COX-1) [µM]
Cc1ccc(/C=N/NC(=O)COc2nn(C)c(=O)c3c(C)n(-c4cccc(Cl)c4)c(C)c23)cc1 [Compound 7c, 2-[6-(3-chlorophenyl)-3,5,7-trimethyl-4-oxo-pyrrolo[3,4-d]pyridazin-1-yl]oxy-N-[(Z/E)-p-tolylmethyleneamino]acetamide]	22.7 ± 2.5	does not affect the COX-1 isoform	248 to 250	81.6 ± 5.1	Cells with an elongated shape characteristic of fibroblasts, the granularities were observed in 3–5 fields of view from 10 analyzed fields.	13.3 ± 0.02	–	–
Cc1c2c(OCC(=O)N/N=C/c3ccccc3O)nn(C)c(=O)c2c(C)n1-c1ccccc1 [Compound 6b, N-[(Z/E)-(2-hydroxyphenyl)methyleneamino]-2-(3,5,7-trimethyl-4-oxo-6-phenyl-pyrrolo[3,4-d]pyridazin-1-yl)oxy-acetamide]	27.7 ± 2.5	–	214 to 217	80.7 ± 1.9	Cells with an elongated shape characteristic of fibroblasts, the granularities were observed in 3–5 fields of view from 10 analyzed fields.	13.7 ± 0.03	0.28	97.7 ± 6.8
CCCCn1c(C)c2c(OCC(=O)N/N=C/c3ccccc3O)nn(C)c(=O)c2c1C [Compound 6a, 2-(6-butyl-3,5,7-trimethyl-4-oxo-pyrrolo[3,4-d]pyridazin-1-yl)oxy-N-[(Z/E)-(2-hydroxyphenyl)methyleneamino]acetamide]	16.4 ± 1.1	–	225 to 227	88.7 ± 4.1	Cells with an elongated shape characteristic of fibroblasts, the granularities were observed in 3–5 fields of view from 10 analyzed fields.	13.6 ± 0.03	0.18	89.2 ± 4.1
Cc1c2c(OCC(=O)N/N=C/c3ccccc3O)nn(C)c(=O)c2c(C)n1-c1cccc(Cl)c1 [Compound 6c, 2-[6-(3-chlorophenyl)-3,5,7-trimethyl-4-oxo-pyrrolo[3,4-d]pyridazin-1-yl]oxy-N-[(Z/E)-(2-hydroxyphenyl)methyleneamino]acetamide]	9.8 ± 3.1	–	230 to 232	211 ± 9.6	Normal morphology of fibroblasts–elongated cells, single granular cells in 1 of 10 assessed fields of view.	14.7 ± 0.02	0.13	76.8 ± 6
Cc1ccc(/C=N/NC(=O)COc2nn(C)c(=O)c3c(C)n(-c4ccccc4)c(C)c23)cc1 [Compound 7b, N-[(Z/E)-p-tolylmethyleneamino]-2-(3,5,7-trimethyl-4-oxo-6-phenyl-pyrrolo[3,4-d]pyridazin-1-yl)oxy-acetamide]	24.5 ± 2.1	–	271 to 272	181 ± 8.7	Normal morphology of fibroblasts-elongated cells, single granular cells in 1 of 10 assessed fields of view.	13.7 ± 0.07	0.27	91.5 ± 5.1
CCCCn1c(C)c2c(OCC(=O)N/N=C/c3ccc(C)cc3)nn(C)c(=O)c2c1C [Compound 7a, 2-(6-butyl-3,5,7-trimethyl-4-oxo-pyrrolo[3,4-d]pyridazin-1-yl)oxy-N-[(Z/E)-p-tolylmethyleneamino]acetamide]	16.1 ± 1.8	–	209 to 211	116 ± 3.6	Cells with an elongated shape characteristic of fibroblasts, the granularities were observed in 3–5 fields of view from 10 analyzed fields.	15.3 ± 2.1	0.17	93.8 ± 4.2
